Laboratory results as given in PubChem BioAssay (NCI).
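The compound was tested at five concentrations on cells cultured in 96-well plates, with a 48-hour exposure period. Abbreviation: GI50, concentration required for 50% inhibition of growth. TGI denotes the concentration required for complete inhibition of growth.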

Legend:
Assay in all cases: growth of human tumour cells (NCI), 48 h
HL-60(TB) leukemia = system: HL-60(TB) leukemia
M14 melanoma = system: M14 melanoma
MOLT-4 leukemia = system: MOLT-4 leukemia
OVCAR-3 ovarian = system: OVCAR-3 ovarian
OVCAR-4 ovarian = system: OVCAR-4 ovarian
OVCAR-5 ovarian = system: OVCAR-5 ovarian
SN12C renal = system: SN12C renal
SNB-19 CNS = system: SNB-19 CNS
UO-31 renal = system: UO-31 renal
UACC-257 melanoma = system: UACC-257 melanoma

| Structure (SMILES) | TGI (HL-60(TB) leukemia) [µM] | TGI (M14 melanoma) [µM] | TGI (MOLT-4 leukemia) [µM] | TGI (OVCAR-3 ovarian) [µM] | TGI (OVCAR-4 ovarian) [µM] | TGI (OVCAR-5 ovarian) [µM] | TGI (SN12C renal) [µM] | TGI (SNB-19 CNS) [µM] | TGI (UO-31 renal) [µM] | GI50 (HL-60(TB) leukemia) [µM] | GI50 (M14 melanoma) [µM] | GI50 (MOLT-4 leukemia) [µM] | GI50 (OVCAR-4 ovarian) [µM] | GI50 (OVCAR-5 ovarian) [µM] | GI50 (SN12C renal) [µM] | GI50 (UACC-257 melanoma) [µM] | TGI (UACC-257 melanoma) [µM] | GI50 (OVCAR-3 ovarian) [µM] | GI50 (UO-31 renal) [µM] | GI50 (SNB-19 CNS) [µM] |
| --- | --- | --- | --- | --- | --- | --- | --- | --- | --- | --- | --- | --- | --- | --- | --- | --- | --- | --- | --- | --- |
| CCCCCCCCSC(=O)NCCCC | 41.3 | 79 | 87 | > 100 | > 100 | > 100 | > 100 | > 100 | 51.6 |  |  |  |  |  |  |  |  |  |  |  |
| Nc1nc(=O)n(C2CC(O)C(CO)O2)cc1F (stereo not drawn) | > 100 | > 100 |  | > 100 | > 100 | > 100 | > 25.8 |  | > 43.3 | > 80.8 | 0.222 | 0.00502 | 47.7 | > 100 | 0.199 | > 100 | > 100 |  |  |  |
| CCCCCC/C=C/C#CCCCCCCCC(=O)O | > 100 | > 100 | > 100 | > 100 | > 100 | > 100 | > 100 | > 100 |  |  |  |  |  |  |  |  | > 100 |  |  |  |
| OCC#CCOCC#Cc1ccccc1C#CCOCC#CCO | > 100 | 49.9 | > 100 | > 100 |  | > 100 | 80.9 |  | > 100 | 47.4 | 20.2 | 44.8 |  | > 100 | 26.7 | 35.5 | > 100 | 38.1 | > 100 |  |
| O=C(NCCCCCCCCCCCCNC(=O)c1cnc2ccccc2n1)c1cnc2ccccc2n1 | > 100 | > 100 | > 100 | > 100 | 29.8 |  | > 100 | 47.7 | 86.1 |  |  |  |  |  |  |  | > 100 |  |  |  |
| Cc1c2cnccc2c(C)c2c1c1cc(O)ccc1n2C(C)C | 3.13 | 2.34 | 1.26 | 6.86 | 7.38 | 9.46 | 6.06 | 10.9 | 5.21 | 0.42 | 0.678 | 0.289 | 1.31 | 2.42 | 0.647 |  |  | 2.04 | 0.785 | 1.76 |
| O=C(NC1CCN(Cc2ccccc2)CC1)c1cc(-c2cccnc2)nc2ccc(Cl)cc12 | 45.2 |  | 9.82 | 28 | 68.5 | > 100 | 29.2 | 42.3 | 21.4 | 8.27 |  | 3.05 | 9.01 | 10.8 | 5.2 | > 100 | > 100 | 11.3 | 4.24 | 11.6 |
| Oc1ccc2ccccc2c1CCc1c(O)ccc2ccccc12 | 40.9 | 29.5 |  | 17.4 |  | 27.2 | 23.3 | 32.4 |  |  |  |  |  |  |  |  | 27.2 |  |  |  |
| COc1ccccc1-n1cnc(N)c1C(=O)c1cc(OC)c(OC)c(OC)c1 | > 100 | > 100 | > 100 | 19.3 | > 100 | > 100 | > 100 | > 100 | > 100 | 3.12 | 3.5 | 4.82 | 6.5 | 62.5 | 5.65 |  |  | 3.34 | 4.21 | 4 |
| O=C1Cc2c(-c3ccccc3)cc(-c3ccccc3)nc2-c2ccccc2N1 | > 100 | 17.5 |  | 21.4 |  | 21.2 | 30.8 | 8.76 | 11.4 |  |  |  |  |  |  |  | > 100 |  |  |  |
| O=S(=O)(C1=CC(S(=O)(=O)c2ccccc2)COC1)c1ccccc1 (stereo not drawn) | > 100 | > 100 | > 100 | > 100 | > 100 |  | > 100 | > 100 | > 100 |  |  |  |  |  |  |  | > 100 |  |  |  |
| COc1ccc2[nH]c(Cl)c(/C=C3/C(=O)Nc4ccccc43)c2c1 | 2.84 | 1.23 |  | 1.07 | 14.3 | 3.12 | 14.7 |  | 9.96 | 0.449 | 0.254 |  | 1.13 | 0.554 | 0.339 | 0.984 | 11.2 | 0.537 | 0.878 | 0.852 |
| CN1CCN(CCCOc2cccc3nc(Nc4cc(Cl)cc(Cl)c4)ccc23)CC1 |  | 3.28 |  | 3.18 | 8.14 | 3.43 | 13.9 | 3.48 | 2.95 |  | 1.73 |  | 2.55 | 1.79 | 3.74 | 1.97 | 3.54 | 1.68 | 1.49 | 1.89 |
| CCN(C(=O)N1CCN(c2cc3c(cc2F)c(=O)c(C(=O)O)cn3C2CC2)CC1)c1nc(-c2ccccc2)cs1 | 4.35 | > 100 |  | 9.83 | 25.9 | > 100 | > 100 | > 100 | > 100 | 1.59 | 3.16 |  | 2.29 | 3.27 | 3.44 | 2.83 | 7.61 | 2.61 | 2.31 | 3.94 |
| CC(=O)Nc1ccccc1-c1nc2ccccc2nc1-c1ccccc1 | > 100 | > 100 | > 100 | > 100 | > 100 |  | > 100 | > 100 | > 100 |  |  |  |  |  |  |  | > 100 |  |  |  |
| N#C/C(=C\c1ccc(O)c(O)c1)C(=O)NCc1ccc(C(F)(F)F)cc1 | > 66.5 |  | 31.7 | 1.11 | > 71.9 | 44.7 | 18.8 | > 68 | 18 | 11.6 |  | 3.92 | 13.3 | 14.2 | 4.06 | 17.9 | > 68.6 | 0.507 | 4.62 | 11.2 |
| CC(Oc1cc2oc(=O)cc(-c3ccccc3)c2cc1Cl)C(=O)O (stereo not drawn) | > 100 | > 100 | > 100 | > 100 | > 100 |  | > 100 | > 100 | > 100 |  |  |  |  |  |  |  | > 100 |  |  |  |
